Results from paper PMC12744750 (Plant Communications, 2025).
“Also recorded” adds a separate entry of the source.

Legend:
pPLS::GUS = pPLS::GUS expression in root tips after hormone treatment; type: in vivo, Arabidopsis; settings: 10 μM 2,4-D, root tips
From the text: Figure S15. The link between auxi n and et hyl ene si gnal l i ng ef f ect s on PLS transcription, and downstream ef f ect s on et hyl ene responses.
(A) Ant agoni sm between auxi n and et hyl ene on PLS expressi on.
Auxin posit ively regulates PLS gene transcription, whi l e ACC (ethylene pr ecur sor ) […]
Lef t upper panel: pPLS::GUS […]
expr ession in the Arabidopsis root tip under standard gr owt h conditions. Lef t lower panel: pPLS::PLS:GFP expr ession in the Arabidopsis root tip under standard gr owt h conditions.
Ri ght panel: pPLS::GUS expr ession in root tips treated wi t h 10 μM 2,4-D, showing ect opic […]
10 μM 2,4-D plus 10 μm ACC, showing the ant agonism of the inductive eff ect of 2,4-D on PLS::GUS expr ession. Images ar e representative of 10 independently gr own roots. […]

[1] = system: Arabidopsis pls mutant seedlings (primary root length); experiment: Hydroponic peptide feeding: rescue of short primary root of pls mutant; type: in vivo, Arabidopsis thaliana; settings: for rescue of root growth of pls seedlings: 50 nM peptide, n = 25 (Figure 2C)
Procedure: (A) Amino acid sequence of the PLS peptide from Arabidopsis thaliana with the Camelina sativa PLS sequence and the synthetic truncations N1, N2, C1, and C2 indicated by horizontal lines. Two cysteine residues are highlighted in bold. (B) Effect of the synthetic Arabidopsis PLS full-length peptide, A. thaliana PLS(FL), and the Camelina PLS peptide (C. sativa PLS) on Arabidopsis primary root length. Wild-type (C24; blue bars) and pls mutant seedlings (orange bars) were grown hydroponically in the presence (100 nM) or absence of peptide for 10 days. ∗∗∗P < 0.05, t-test between C24 and pls. Error bars show ±1 standard error of the mean, n = 20. (C) Effect of synthetic full-length and truncated peptides on primary root length of wild-type (blue bars) and pls mutant (orange bars) Arabidopsis. Seedlings were grown hydroponically in the presence of 50 nM peptide for 10 days. C1, C-terminal 14 amino acids; C2, C-terminal 24 amino acids; N1, N-terminal 22 amino acids; N2, N-terminal 9 amino acids; full-length PLS, 36 amino acids. Error bars show ±1 standard error of the mean, n = 25. ∗∗∗P < 0.05, t-test between C24 and pls.
proPLS::PLS:GFP comprises a 1.5-kb PLS promoter sequence ([Casson et al., 2002]) fused to the PLS open reading frame in pMDC107 (obtained from Prof. P.J. Hussey, Durham University) as a C-terminal GFP translational fusion. The PLS ORF with its 1.5-kb promoter was amplified from the TOPO 2.1 vector, which contained the PLS gene sequence with promoter ([Casson et al., 2002]); the primers used for cloning are listed in supplemental Table 9. pls mutant plants were transformed using the method of [Clough and Bent (1998)]. proPLS::GFP plants were generated using the 1.5-kb PLS promoter ([Casson et al., 2002]) fused to GFP in a wild-type background. p35S::GFP seedlings were obtained from Dr. Piers Hemsley, Durham University. Seedlings of Arabidopsis thaliana ecotype C24 or Col-0, pls mutants, and transgenic PLS overexpressers, all from lab stocks, were grown on solid sterile half-strength (2.2 g/l) Murashige and Skoog medium (Sigma-Aldrich) containing 10 g/l sucrose (half-strength [½] MS10 medium) solidified with 2.5 g/l Phytagel (Sigma-Aldrich) in 90-mm Petri dishes (Sarstedt, Leicester, UK) at 21°C under a 16-h photoperiod as described previously ([Casson et al., 2002]; [Chilley et al., 2006]). N. benthamiana plants (lab stocks) were grown in a controlled environment (21°C, 16-h photoperiod) for transient expression studies in leaf tissue. For hydroponic feeding studies, Arabidopsis seedlings were cultured in liquid ½ MS10 medium (1 ml/well) in sterile 24-well plates (Sarstedt), essentially as described in [Matsuzaki et al. (2010]). For hormone and peptide assays, one seedling was grown in each well at 21°C under a 16-h photoperiod. For peptide feeding experiments, purified freeze-dried peptide was dissolved in DMSO to create a 500-μM stock solution. The peptide stock solution was added to liquid ½ MS10 medium containing 0.1% DMSO to obtain a final peptide concentration of 50 or 100 nM (or 10, 25, 50, and 100 nM for dose-dependent assays). For copper treatments, 1 mM CuSO4 solution was filter sterilized and added to autoclaved liquid ½ MS10 medium to obtain final CuSO4 concentrations of 0, 5, 10, 15, 20, 25, 30, 35, 40, 45, and 50 μM. Seedlings were scanned to create a digital image, and root lengths of the seedlings were measured using ImageJ. Statistical analysis was performed using Real Statistics Resource Pack software (release 3.8, www.real-statistics.com) in Excel (Microsoft) using data from at least 10 independently grown seedlings for root growth analysis; specific numbers are defined for each experiment.

[2] = Anaerobic Cu(I) titration in competition with bicinchoninic acid (BCA); type: binding; settings: synthetic peptide; mutant 40 μM, BCA 93.3 μM, mean ± SD, n = 3 (supplemental Figure 10)
Procedure: Freeze-dried synthetic PLS peptide (Cambridge Research Biochemicals) was dissolved in DMSO. An aliquot was added to aqueous buffer (10 mM HEPES [pH 7], 20 mM NaCl, 80 mM KCl), and absorbance was recorded at 280 nm. PLS concentration was estimated from the absorbance and the ProtParam estimated extinction coefficient of 2980 M^−1 cm^−1. Concurrently, a sample was submitted for quantitative amino acid analysis (Abingdon Health Laboratory Services). From this analysis, a conversion factor of 2.27 was generated, which was applied to the concentrations determined by A280 nm.
A fusion of PLS to MBP was created using the NEBExpress MBP Fusion and Purification System. Two complementary oligonucleotide primers encoding PLS (optimized for expression in E. coli) were annealed and inserted into the pMal-c5x plasmid at the XmnI and SalI insertion sites. The three mutants MBP:PLS(C6S), MBP:PLS(C17S), and MBP:PLS(C6S/C17S) were created by site-directed mutagenesis (QuikChange II, Agilent). E. coli NEB Express containing the pMal plasmid with the correct MBP:PLS mutant was used to overexpress each protein. Harvested cells were resuspended in 20 mM Tris–HCl (pH 7.4), 200 mM NaCl, and 1 mM EDTA, then frozen at −20°C overnight. Cells were defrosted in cold H2O, sonicated, purified by ammonium sulfate precipitation (where MBP-PLS precipitates >60% saturation), separated on an MBP-Trap column (GE Healthcare), and eluted using buffer containing 10 mM maltose. MBP:PLS-containing fractions were pooled and concentrated using a centrifugal concentrator (Corning, Spin-X UF 30 kDa) and buffer exchanged by desalting column into a metal-free buffer of 20 mM HEPES (pH 7.0) and 50 mM NaCl in an anaerobic chamber (Belle Technology). Mutants containing thiols were quantified using Ellman’s assay, and MBP:PLS(C6S/C17S), which lacks all thiols, was quantified using the Bradford assay alone. Samples were also analyzed for metal content by ICP–MS to ensure >95% apo-protein.
All Cu(I) titration experiments were carried out in an anaerobic chamber (Belle Technology) using metal-free CHELEX-treated, degassed buffers. For titration experiments with Cu(I), aqueous CuSO4 stock was quantified in advance by ICP–MS and diluted to working concentrations. The reductant NH2OH was included at a final concentration of 1 mM to maintain Cu(I) in its reduced state. Proteins were diluted in buffer to the final concentration specified in each titration in air-tight quartz cuvettes (Helma), and after addition of probe to the concentration specified, titrated with CuSO4. After each addition, solutions were thoroughly mixed and absorbance spectra recorded using a Lambda 35 UV/Vis spectrophotometer (PerkinElmer). Titration isotherm data were fitted using simulated affinity curves with DynaFit ([Kuzmič, 2009]).

pls mutant = settings: cited from earlier work
From the text: Transgenic complementation of the mutant by the PLS gene (AT4G39403), which encodes a 36-amino-acid peptide, suppresses the mutant phenotype ([ ... || The pls mutant is rescued by the supply of silver ions ([Casson et al., 2002]), and silver is likely delivered to the ethylene receptor via RAN1 ([Binder et al., 2010]); these findings argue against a mechanism in which PLS acts downstream of RAN1 to metalate ETR1 in the ER lumen. It is also unlikely that PLS removes Cu(I) from the receptor, as this would inactivate the receptor and lead to enhanced ethylene signaling in the presence of PLS, which is the opposite of what would be expected from the pls mutant phenotype. We therefore favor a model (Figure 6) in which PLS binds ETR1 as part of th ...

[3] = target: T1, full-length ETR1, recombinant, purified and fluorescently labeled (Arabidopsis, UniProt P49333 1-738, fluorescent label (dye and site not stated)); experiment: MST
T1 chain: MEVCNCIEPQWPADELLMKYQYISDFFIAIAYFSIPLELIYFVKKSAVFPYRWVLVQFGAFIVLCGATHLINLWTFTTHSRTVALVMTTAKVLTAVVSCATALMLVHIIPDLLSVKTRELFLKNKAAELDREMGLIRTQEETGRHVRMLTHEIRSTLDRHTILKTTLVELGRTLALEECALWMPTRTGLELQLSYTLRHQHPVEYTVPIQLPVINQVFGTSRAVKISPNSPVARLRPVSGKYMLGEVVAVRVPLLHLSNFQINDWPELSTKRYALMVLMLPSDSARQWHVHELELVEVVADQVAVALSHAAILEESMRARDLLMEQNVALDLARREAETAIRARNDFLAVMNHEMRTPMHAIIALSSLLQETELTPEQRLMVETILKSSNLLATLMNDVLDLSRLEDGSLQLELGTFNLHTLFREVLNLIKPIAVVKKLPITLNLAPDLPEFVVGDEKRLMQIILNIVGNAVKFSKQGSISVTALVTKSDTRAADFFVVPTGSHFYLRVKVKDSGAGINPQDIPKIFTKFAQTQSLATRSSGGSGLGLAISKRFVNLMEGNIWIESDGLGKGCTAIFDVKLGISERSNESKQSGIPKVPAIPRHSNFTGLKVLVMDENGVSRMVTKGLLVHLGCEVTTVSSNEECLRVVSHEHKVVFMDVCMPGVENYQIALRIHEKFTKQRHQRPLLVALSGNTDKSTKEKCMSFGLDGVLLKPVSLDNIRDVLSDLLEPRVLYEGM

## O=C(O)COc1ccc(Cl)cc1Cl [2,4-D]
pPLS::GUS
  pPLS::GUS expression: throughout the root

## C1: C-terminal 14 amino acids of Arabidopsis PLS (YLLVAKLFKLFKIH; UniProt Q8LLV8 23-36, looked up, fragment)
[1]; hydroponic, 10 days
  rescue of root growth of pls seedlings: unable to rescue the mutant

## C2: C-terminal 24 amino acids of Arabidopsis PLS (SISPCYISISYLLVAKLFKLFKIH; UniProt Q8LLV8 13-36, looked up, fragment)
[1]; hydroponic, 10 days
  rescue of root growth of pls seedlings: unable to rescue the mutant

## N1: N-terminal 22 amino acids of Arabidopsis PLS (MKPRLCFNFRRRSISPCYISIS; UniProt Q8LLV8 1-22, looked up, fragment)
[1]; hydroponic, 10 days
  rescue of root growth of pls seedlings: rescued root growth
[1]; 50 nM, n = 25
  difference in rescue effects of PLS(FL) and PLS(N1), t-test P: > 0.1
[1]; 50 nM, n = 25, t-test
  difference in rescue effects of PLS(FL) and PLS(N1): did not differ significantly
[1]; hydroponic, 10 days, 100 nM (Figure 2B) or 50 nM (Figure 2C)
  rescue of short primary root length of pls mutant: able to rescue the short primary root length

## N2: N-terminal 9 amino acids of Arabidopsis PLS (MKPRLCFNF; UniProt Q8LLV8 1-9, looked up, fragment)
[1]; hydroponic, 10 days
  rescue of root growth of pls seedlings: unable to rescue the mutant

## PLS(FL C6S, C17S): mutated Arabidopsis full-length peptide in which both cysteines were replaced with serines (MKPRLSFNFRRRSISPSYISISYLLVAKLFKLFKIH; full-length; UniProt Q8LLV8 1-36, looked up, variant C6S C17S)
[2]
  withholding of Cu(I) from BCA: does not
[1]; 100 nM, hydroponic, 10 days (Figure 5A)
  rescue of pls mutant by double-Cys mutant peptide: non-functional; also recorded: failing to rescue the short primary root phenotype of the pls mutant

## silver ions
Pls mutant; pharmacological inhibition of ethylene signaling, ref Chilley et al., 2006
  rescue of pls mutant phenotype: rescued
Pls mutant; supply of silver ions, ref Casson et al., 2002
  rescue of pls mutant: rescued

B1: synthetic full-length POLARIS (PLS) peptide, PLS(FL) (peptide)
peptide: MKPRLCFNFRRRSISPCYISISYLLVAKLFKLFKIH
[3]
  Kd: 1900 nM
